Structures are written as SMILES.

The target in this experiment is Mitogen-activated protein kinase 8 (Homo sapiens, UniProt P45983). As to the kind of experiment: In Vitro Enzyme Assay: In vitro JNK1 assay.
Sequence of Mitogen-activated protein kinase 8 (P45983 whole entry): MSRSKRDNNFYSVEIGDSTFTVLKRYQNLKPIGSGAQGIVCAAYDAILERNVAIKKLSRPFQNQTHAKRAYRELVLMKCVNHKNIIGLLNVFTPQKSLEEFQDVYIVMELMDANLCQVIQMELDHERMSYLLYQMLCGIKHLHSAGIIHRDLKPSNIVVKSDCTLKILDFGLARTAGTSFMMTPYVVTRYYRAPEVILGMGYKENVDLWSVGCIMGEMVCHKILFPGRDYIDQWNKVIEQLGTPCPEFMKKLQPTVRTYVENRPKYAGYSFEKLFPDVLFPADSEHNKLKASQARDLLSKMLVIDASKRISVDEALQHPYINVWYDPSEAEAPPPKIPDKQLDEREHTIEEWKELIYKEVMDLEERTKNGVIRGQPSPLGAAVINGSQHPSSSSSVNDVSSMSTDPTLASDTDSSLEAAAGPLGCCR
For `COC(=O)c1c(CNC(=O)c2cnc(N3CCOCC3)s2)c(=O)c2ccc(Cl)cc2n1-c1ccccc1`, the IC50 worked out at 8 nM.
For `CC(C)(O)CNC(=O)c1ccc(C(=O)NCc2cn(-c3ccccc3)c3cc(Cl)ccc3c2=O)cc1`, half-maximal inhibition (IC50) was put at 220 nM.
Consider `O=C(NCc1cn(-c2ccccc2F)c2cc(F)ccc2c1=O)c1cnn(-c2ccccc2)c1`, for which 40 nM corresponded to half-maximal inhibition (IC50).
